In patent publication US7642221B2, “Substituted thien-3-yl-sulphonylamino(thio)carbonyl-triazoline(ethi)ones” (Bayer Aktiengesellschaft, priority 1999, dated 2010):

Columns and labels:
Bromus = test: Pre-emergence test/greenhouse; assay type: in vivo; settings: greenhouse, 60 g of ai/ha, rated after three weeks
Description: (§1) • Solvent: 5 parts by weight of acetone • Emulsifier: 1 part by weight of alkylaryl polyglycol ether
(§2) To produce a suitable preparation of active compound, 1 part by weight of active compound is mixed with the stated amount of solvent, the stated amount of emulsifier is added and the concentrate is diluted with water to the desired concentration.
(§3) Seeds of the test plants are sown in normal soil. After about 24 hours, the soil is sprayed with the preparation of active compound such that the particular amount of active compound desired is applied per unit area. The concentration of the spray liquor is chosen so that the particular amount of active compound desired is applied in 1000 liters of water per hectare.
(§4) After three weeks, the degree of damage to the plants is rated in % damage in comparison to the development of the untreated control.
(§5) The figure denote: • 0%=no effect (like untreated control) • 100%=total destruction

Chenopodium = test: Pre-emergence test/greenhouse; assay type: in vivo; settings: greenhouse, 60 g of ai/ha, rated after three weeks
Description: as §1, §2, §3, §4, §5

Cotton = test: Pre-emergence test/greenhouse; assay type: in vivo; settings: greenhouse, 60 g of ai/ha, rated after three weeks
Description: as §1, §2, §3, §4, §5

Echinochloa = test: Pre-emergence test/greenhouse; assay type: in vivo; settings: greenhouse, 60 g of ai/ha, rated after three weeks
Description: as §1, §2, §3, §4, §5

Solanum = test: Pre-emergence test/greenhouse; assay type: in vivo; settings: greenhouse, 60 g of ai/ha, rated after three weeks
Description: as §1, §2, §3, §4, §5

Stellaria = test: Pre-emergence test/greenhouse; assay type: in vivo; settings: greenhouse, 60 g of ai/ha, rated after three weeks
Description: as §1, §2, §3, §4, §5

Veronica = test: Pre-emergence test/greenhouse; assay type: in vivo; settings: greenhouse, 60 g of ai/ha, rated after three weeks
Description: as §1, §2, §3, §4, §5

Viola = test: Pre-emergence test/greenhouse; assay type: in vivo; settings: greenhouse, 60 g of ai/ha, rated after three weeks
Description: as §1, §2, §3, §4, §5

weeds [1] = test: Pre-emergence test, activity against weeds; assay type: in vivo
Description: as §1, §2, §3, §4, §5

Abutilon [2] = test: Post-emergence test/greenhouse; assay type: in vivo; settings: greenhouse, 250 g of ai/ha, rated after three weeks
Description: as §1
(§6) To produce a suitable preparation of active compound, one part by weight of active compound is mixed with the stated amount of solvent, the stated amount of emulsifier is added and the concentrate is diluted with water to the desired concentration.
(§7) Test plants which have a height of 5-15 cm are sprayed with the preparation of active compound such that the particular amounts of active compound desired are applied per unit area. The concentration of the spray liquor is chosen so that the particular amounts of active compound desired are applied in 1000 l of water/ha.
as §4
(§8) The figures denote: • 0%=no effect (like untreated control) • 100%=total destruction

Alopecurus [3] = test: Post-emergence test/greenhouse; assay type: in vivo; settings: greenhouse, 250 g of ai/ha, rated after three weeks
Description: as §1, §6, §7, §4, §8

Amaranthus [4] = test: Post-emergence test/greenhouse; assay type: in vivo; settings: greenhouse, 250 g of ai/ha, rated after three weeks
Description: as §1, §6, §7, §4, §8

Avenafatua = test: Post-emergence test/greenhouse; assay type: in vivo; settings: greenhouse, 250 g of ai/ha, rated after three weeks
Description: as §1, §6, §7, §4, §8

Setaria [5] = test: Post-emergence test/greenhouse; assay type: in vivo; settings: greenhouse, 250 g of ai/ha, rated after three weeks
Description: as §1, §6, §7, §4, §8

Sinapis [6] = test: Post-emergence test/greenhouse; assay type: in vivo; settings: greenhouse, 250 g of ai/ha, rated after three weeks
Description: as §1, §6, §7, §4, §8

Xanthium = test: Post-emergence test/greenhouse; assay type: in vivo; settings: greenhouse, 250 g of ai/ha, rated after three weeks
Description: as §1, §6, §7, §4, §8

weeds [7] = test: Post-emergence test, activity against weeds; assay type: in vivo
Description: as §1, §6, §7, §4, §8

Alopecurus [8] = test: Pre-emergence test/greenhouse; assay type: in vivo; settings: greenhouse, rated after three weeks
Description: as §1, §2, §3, §4, §5

Matricaria = test: Pre-emergence test/greenhouse; assay type: in vivo; settings: greenhouse, 60 g of ai/ha, rated after three weeks
Description: as §1, §2, §3, §4, §5

Setaria [9] = test: Pre-emergence test/greenhouse; assay type: in vivo; settings: greenhouse, rated after three weeks
Description: as §1, §2, §3, §4, §5

Abutilon [10] = test: Pre-emergence test/greenhouse; assay type: in vivo; settings: greenhouse, 250 g of ai/ha, rated after three weeks
Description: as §1, §2, §3, §4, §5

Amaranthus [11] = test: Pre-emergence test/greenhouse; assay type: in vivo; settings: greenhouse, 250 g of ai/ha, rated after three weeks
Description: as §1, §2, §3, §4, §5

Cyperus = test: Pre-emergence test/greenhouse; assay type: in vivo; settings: greenhouse, 250 g of ai/ha, rated after three weeks
Description: as §1, §2, §3, §4, §5

Galium = test: Pre-emergence test/greenhouse; assay type: in vivo; settings: greenhouse, 250 g of ai/ha, rated after three weeks
Description: as §1, §2, §3, §4, §5

Sinapis [12] = test: Pre-emergence test/greenhouse; assay type: in vivo; settings: greenhouse, 250 g of ai/ha, rated after three weeks
Description: as §1, §2, §3, §4, §5

Row | SMILES | degree of damage to the plants, Bromus (Bromus) [%] | degree of damage to the plants, Chenopodium (Chenopodium) [%] | degree of damage to the plants, Stellaria (Stellaria) [%] | degree of damage to the plants, Veronica (Veronica) [%] | degree of damage to the plants, Viola (Viola) [%] | activity against weeds (weeds [1]) | degree of damage to the plants, Abutilon (Abutilon [2]) [%] | degree of damage to the plants, Alopecurus (Alopecurus [3]) [%] | degree of damage to the plants, Amaranthus (Amaranthus [4]) [%] | degree of damage to the plants, Avenafatua (Avenafatua) [%] | degree of damage to the plants, Setaria (Setaria [5]) [%] | degree of damage to the plants, Sinapis (Sinapis [6]) [%] | degree of damage to the plants, Xanthium (Xanthium) [%] | activity against weeds (weeds [7]) | degree of damage to the plants, Abutilon (Abutilon [10]) [%] | degree of damage to the plants, Alopecurus (Alopecurus [8]; 250 g of ai/ha) [%] | degree of damage to the plants, Amaranthus (Amaranthus [11]) [%] | degree of damage to the plants, Cyperus (Cyperus) [%] | degree of damage to the plants, Galium (Galium) [%] | degree of damage to the plants, Setaria (Setaria [9]; 250 g of ai/ha) [%] | further results
1 | COC(=O)c1csc(C)c1S(=O)(=O)NC(=O)n1nc(OC(C)C)n(C2CC2)c1=O [Example 8] | 90 | 90 | 95 | 95 | 100 | very strong activity | 100 | 100 | 100 | 100 | 100 | 95 | 100 | very strong activity | – | – | – | – | – | – | degree of damage to the plants, Cotton (Cotton): 0%; degree of damage to the plants, Echinochloa (Echinochloa): 90%; degree of damage to the plants, Solanum (Solanum): 90%
2 | CCOc1nn(C(=O)NS(=O)(=O)c2c(C(=O)OC)csc2C)c(=O)n1C [Example 1, methyl 4-[[[(3-ethoxy-4,5-dihydro-4-methyl-5-oxo-1H-1,2,4-triazol-1-yl)-carbonyl]-amino]-sulphonyl]-5-methyl-thiophene-3-carboxylate] | 90 | 100 | 95 | 100 | 100 | very strong activity | 100 | 100 | 100 | 100 | 100 | 100 | 100 | very strong activity | – | – | – | – | – | – | degree of damage to the plants, Alopecurus (Alopecurus [8]; 60 g of ai/ha): 90%; degree of damage to the plants, Matricaria (Matricaria): 95%; degree of damage to the plants, Setaria (Setaria [9]; 60 g of ai/ha): 90%; melting point: 163 °C
3 | CCCOc1nn(C(=O)NS(=O)(=O)c2c(C(=O)OC)csc2C)c(=O)n1C1CC1 [Example 7] | – | – | – | – | – | very strong activity | 100 | 95 | 100 | 100 | 90 | 100 | 90 | very strong activity | 95 | 90 | 95 | 100 | 95 | 95 | degree of damage to the plants, Sinapis (Sinapis [12]): 95%
4 | COC(=O)c1csc(C)c1S(=O)(=O)NC(=O)n1nc(C2CC2)n(C2CC2)c1=O [Example 9] | – | – | – | – | – | very strong activity | 100 | 100 | 100 | 100 | 100 | 100 | 100 | very strong activity | 100 | 95 | 100 | 100 | 95 | 100 | degree of damage to the plants, Sinapis (Sinapis [12]): 95%
